Experimental data published in paper PMC7343282, “Tissue Distribution of Several Series of Cationic Surfactants in Rainbow Trout (Oncorhynchus mykiss) Following Exposure via Water” (Environmental Science & Technology, 2020).
Several values for one entry are separate records, joined by “and”; a condition that tells them apart may be missing. Equal values may be shown once.

Key:
[1] = Tissue-blood distribution coefficients and volume of distribution; conditions: whole blood, pH 7.5, Estimated volume of distribution Vd, residues in muscle, liver and blood only
Procedure: (§1) Blood is the transport medium for contaminants in fish, and the tissue distribution is governed by tissue–blood distribution coefficients. […] Muscle–blood and liver–blood distribution coefficients (DMus–B and DL–B) were calculated as the quotients of the concentrations in the respective tissues and blood. This approach implies that there was an internal test chemical steady state in the fish.
(§2) The experimental data also allow estimation of the volume of distribution (Vd), an important parameter for extrapolating in vitro measures of e.g. metabolism to in vivo. In the context of quantitative in vitro–in vivo extrapolation for fish, Vd is defined as the quotient of the concentration in fish and the concentration in blood and describes the equivalent volume of blood that would contain the same amount of the chemical as 1 kg of fish.[40]Vd was estimated using the residues that had been clearly taken up systemically (i.e., those in muscle, liver and blood).

Danio rerio = conditions: ref REACH dossiers (European Chemicals Agency); cited from earlier work
Pimephales promelas = test system: Pimephales promelas; parameters: method as in REACH dossiers (European Chemicals Agency); conditions: ref REACH dossiers (European Chemicals Agency); cited from earlier work
carp (Cyprinus carpio) = test system: carp (Cyprinus carpio); parameters: method as in ECHA Registration dossier for octadecylamine; conditions: after acidic methanol wash to remove the mucous, validity uncertain, ref ECHA Registration dossier for octadecylamine; cited from earlier work
[2] = test system: rainbow trout (Oncorhynchus mykiss); assay: Tissue-blood distribution coefficients and volume of distribution; conditions: residues in muscle, liver and blood only
Procedure: as §1, §2

Row | Structure (SMILES) | Vd at 7 d ([1]; Mean) [L/kg] | Vd at 7 d ([1]; exposed fish #1) [L/kg] | Vd at 7 d ([1]; exposed fish #2) [L/kg] | Vd at 7 d ([1]; exposed fish #3) [L/kg] | Vd at 7 d ([1]; exposed fish #4) [L/kg] | Vd at 7 d ([1]; exposed fish #5) [L/kg] | Vd at 7 d ([1]; exposed fish #6) [L/kg] | 96h-LC50 (Danio rerio) | 96h-LC50 (Pimephales promelas) [mg/L] | Vd at 7 d ([1]; rainbow trout (Oncorhynchus mykiss), other: exposure via water, Mean) [L/kg] | BCF (carp (Cyprinus carpio)) [L/kg] | Estimated volume of distribution Vd ([2]; Mean) [L/kg] | Estimated volume of distribution Vd ([2]; exposed fish #1) [L/kg] | Estimated volume of distribution Vd ([2]; exposed fish #2) [L/kg] | Estimated volume of distribution Vd ([2]; exposed fish #3) [L/kg] | Estimated volume of distribution Vd ([2]; exposed fish #4) [L/kg] | Estimated volume of distribution Vd ([2]; exposed fish #5) [L/kg] | Estimated volume of distribution Vd ([2]; exposed fish #6) [L/kg]
1 | CCCCCCCCCN [P9, Nonylamine] | 0.91 | 0.59 | 1.06 | 0.8 | 1.6 | 0.83 | 0.56 |  |  |  |  |  |  |  |  |  |  | 
2 | CCCCCCCCCCCCN [P12, Dodecylamine] | 1.29 | 1.13 | 1.31 | 1.07 | 1.87 | 1.56 | 0.79 | 0.54 mg/L and 0.42 mg/L |  |  |  |  |  |  |  |  |  | 
3 | CCCCCCCCCCCCCN [P13, tridecylamine] |  | 1.59 | 1.44 | 1.28 | 1.33 | 1.54 | 1.77 |  | 0.065 | 1.49 |  |  |  |  |  |  |  | 
4 | CCCCCCCCCCCCCCCCN [P16, hexadecylamine] | 1.13 | 0.99 | 1.2 | 1.1 | 1.63 | 1.15 | 0.73 |  |  |  | 300 |  |  |  |  |  |  | 
5 | CCCCCCCCCN(C)C [T9, N,N-dimethylnonylamine] |  |  |  |  |  |  |  |  |  |  |  | 0.49 | 0.53 | 0.45 | 0.41 | 0.51 | 0.52 | 0.52
6 | CCCCCCCCCCCCCN(C)C [T13, N,N-dimethyltridecylamine] |  |  |  |  |  |  |  |  |  |  |  | 0.71 | 0.58 | 0.64 | 0.59 | 1.18 | 0.80 | 0.47
